The values that follow come from PubChem BioAssay (NCI).

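Cultured in 96-well plates, cells were exposed to test compound for 48 hours across five concentrations. The concentration for 50% growth inhibition is given as GI50. TGI is the concentration that stops growth completely.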 Where a SMILES comes first, the peptide text is derived from it. Bridges are numbered along the chain shown (N, C = ends).

Test systems include K-562 leukemia; M14 melanoma; OVCAR-4 ovarian; SK-MEL-28 melanoma; SK-MEL-5 melanoma; SK-OV-3 ovarian; SNB-19 CNS; U251 CNS; MALME-3M melanoma.
Holding throughout (assay): NCI-60 cell line screen, 48 h

For the compound `CC1(C)C=C(N2CCN(C3=CC(C)(C)NC(C)(C)C3)CC2)CC(C)(C)N1`, the TGI in the assay with K-562 leukemia, with M14 melanoma, in the assay on OVCAR-4 ovarian, in the assay on SK-MEL-28 melanoma, with SK-MEL-5 melanoma and with SK-OV-3 ovarian was over 100 µM in each case. Also, the TGI in the assay on SNB-19 CNS and with U251 CNS was over 100 µM throughout.

As for `CC(O)(c1ccc(OCCC[N+](C)(C)C)cc1)C(C)(O)c1ccc(OCCC[N+](C)(C)C)cc1` (stereo unspecified), the TGI with K-562 leukemia, with M14 melanoma, in the assay with MALME-3M melanoma, in the assay with OVCAR-4 ovarian, with SK-MEL-28 melanoma and in the assay on SK-OV-3 ovarian was over 100 µM in each case. Further, the TGI with SNB-19 CNS and in the assay with U251 CNS was over 100 µM in each case.

As to `CSC(=NC(=O)c1ccccc1)SCCSC(=NC(=O)c1ccccc1)SC`, the TGI is over 100 µM with K-562 leukemia; over 100 µM with M14 melanoma; over 100 µM in the assay with MALME-3M melanoma; 87.6 µM in the assay with OVCAR-4 ovarian; over 100 µM in the assay with SK-MEL-28 melanoma; over 100 µM in the assay on SK-MEL-5 melanoma. Further, the TGI in the assay with SNB-19 CNS and in the assay with U251 CNS was over 100 µM each time.

With `CN(CCc1ccccn1)/[N+]([O-])=N/O` (tested in a mixture with another compound), the TGI with K-562 leukemia, with M14 melanoma, in the assay with MALME-3M melanoma, with OVCAR-4 ovarian, with SK-MEL-28 melanoma and with SK-MEL-5 melanoma was over 100 µM in each case. This compound also had a TGI in the assay with SNB-19 CNS of over 100 µM.

As to `O=C1/C=C/[C@@H](O)[C@@H]2C[C@@H](O)C[C@H]2/C=C/CCC[C@H](CCc2ccc(NC(=S)Nc3ccc4c(c3)C(=O)OC43c4ccc(O)cc4Oc4cc(O)ccc43)cc2)O1`, the GI50 with K-562 leukemia is 1.17 µM; with M14 melanoma, 0.36 µM; in the assay with MALME-3M melanoma, 2.26 µM; in the assay on OVCAR-4 ovarian, 0.333 µM; with SK-MEL-28 melanoma, 0.263 µM; with SK-MEL-5 melanoma it was 0.164 µM. Further, the GI50 in the assay with SK-OV-3 ovarian was 0.578 µM; in the assay on SNB-19 CNS it was 0.59 µM; with U251 CNS, 0.47 µM. The TGI in the assay on K-562 leukemia is over 100 µM; with M14 melanoma, over 49.2 µM; in the assay with MALME-3M melanoma, over 100 µM; with SK-MEL-28 melanoma, 0.815 µM; in the assay with SK-MEL-5 melanoma, 0.311 µM; in the assay with SK-OV-3 ovarian, over 100 µM. Also, the TGI in the assay with SNB-19 CNS and in the assay with U251 CNS was over 100 µM throughout.

As for `CCCCCCCCC1C(C)c2c([nH]c3ccccc23)C2C(=O)N(c3ccccc3)C(=O)C21` (stereo unspecified), the TGI in the assay with K-562 leukemia came out at 14.7 µM; with M14 melanoma, 28 µM; in the assay with MALME-3M melanoma, 39.1 µM; in the assay with OVCAR-4 ovarian, 15.8 µM; in the assay with SK-MEL-28 melanoma, 34.3 µM; in the assay on SK-MEL-5 melanoma, 31.7 µM. Also, the TGI stood at 51.1 µM in the assay with SK-OV-3 ovarian and 22.9 µM in the assay with U251 CNS.

With `COC(=O)/C=C(C)/C=C/c1c(C)c(C(C)=O)c(C)n1C`, the TGI in the assay with K-562 leukemia, with M14 melanoma, in the assay on MALME-3M melanoma, in the assay with OVCAR-4 ovarian, with SK-OV-3 ovarian and in the assay with SNB-19 CNS was over 100 µM throughout. Moreover, in the assay on U251 CNS, the TGI was over 100 µM.

For the compound `CCc1cc2c(Nc3ccccc3)c3c(nc2s1)CCCC3`, the TGI in the assay on K-562 leukemia, in the assay on M14 melanoma, in the assay on MALME-3M melanoma, in the assay on OVCAR-4 ovarian, with SK-MEL-28 melanoma and in the assay with SK-MEL-5 melanoma was over 100 µM in each case. Moreover, the TGI in the assay with SK-OV-3 ovarian, in the assay on SNB-19 CNS and with U251 CNS was over 100 µM throughout.

Regarding `CC(/C=C1\CCC(CN(C)C)C1=O)c1cccc(Br)c1` (stereo unspecified), the TGI was 9.43 µM in the assay with K-562 leukemia; 29.2 µM in the assay on M14 melanoma; 32.4 µM in the assay with MALME-3M melanoma; 32.3 µM in the assay on OVCAR-4 ovarian; 31.5 µM with SK-MEL-28 melanoma; 18.8 µM in the assay with SK-MEL-5 melanoma. The TGI in the assay with SK-OV-3 ovarian was over 100 µM; with SNB-19 CNS, 61.2 µM; with U251 CNS it was 32.4 µM.

`CCC(C)C1NC(=O)C(CC(C)C)NC(=O)C(C(C)C)NC(=O)C2CSSCC(NC1=O)C(=O)N2` (stereo unspecified) (cyclo(CCVLI); disulfide 1-2; configuration not given here): the TGI was found to be 1.01 µM in the assay with M14 melanoma; 0.362 µM with OVCAR-4 ovarian; 0.269 µM in the assay on SK-MEL-28 melanoma; 0.293 µM in the assay on SK-MEL-5 melanoma; 0.344 µM in the assay on SNB-19 CNS; 0.149 µM in the assay on U251 CNS.

On to `CCCc1nn(C)c(CCC(=O)N(Cc2ccccc2)Cc2ccccc2)c1CC`, for which the TGI in the assay on M14 melanoma, with MALME-3M melanoma, with OVCAR-4 ovarian, with SK-MEL-28 melanoma, in the assay on SK-MEL-5 melanoma and with SK-OV-3 ovarian was over 100 µM throughout. In addition, the TGI in the assay on SNB-19 CNS and with U251 CNS was over 100 µM throughout.

Take `CCC1=CCC(P(=O)(c2ccccc2)c2ccccc2)CC1C` (stereo unspecified): the TGI with K-562 leukemia was over 100 µM; in the assay on M14 melanoma, over 100 µM; in the assay with MALME-3M melanoma, over 100 µM; in the assay with OVCAR-4 ovarian, over 100 µM; in the assay with SK-MEL-28 melanoma, over 100 µM; in the assay with SK-MEL-5 melanoma it was 70.8 µM. For the same compound, the TGI in the assay with SK-OV-3 ovarian, with SNB-19 CNS and in the assay with U251 CNS was over 100 µM throughout.

As to `Cc1ccc(-c2nc3ccccc3c(=O)n2NC2OC(CO)C(O)C(O)C2O)cc1` (stereo unspecified), the TGI in the assay with K-562 leukemia, with M14 melanoma, with MALME-3M melanoma, with OVCAR-4 ovarian, in the assay on SK-MEL-28 melanoma and with SK-MEL-5 melanoma was over 100 µM throughout. Further, the TGI in the assay on SK-OV-3 ovarian, in the assay on SNB-19 CNS and in the assay on U251 CNS was over 100 µM each time.

As for `CC[C@@]1(O)C(=O)OCc2c1cc1n(c2=O)Cc2cc3cccc(N)c3nc2-1`, the GI50 is over 100 µM in the assay on K-562 leukemia; 9.27 µM in the assay with M14 melanoma; 84.5 µM in the assay on MALME-3M melanoma; 7.57 µM with OVCAR-4 ovarian; over 100 µM in the assay on SK-MEL-28 melanoma; 8.75 µM in the assay on SK-MEL-5 melanoma. In addition, the GI50 in the assay on SK-OV-3 ovarian is 5.13 µM; in the assay on SNB-19 CNS, 5.77 µM; with U251 CNS, 3.03 µM. Also, the TGI with K-562 leukemia, in the assay with M14 melanoma, in the assay with MALME-3M melanoma, in the assay with OVCAR-4 ovarian, in the assay on SK-MEL-28 melanoma and in the assay with SK-MEL-5 melanoma was over 100 µM throughout. Further, the TGI in the assay on SK-OV-3 ovarian turned out to be 29.7 µM; with SNB-19 CNS, 50.3 µM; with U251 CNS it was 18.8 µM.
